From patent US20250221410A1, “SUBSTITUTED 2-C-AZINES AND SALTS THEREOF, AND USE THEREOF AS HERBICIDAL ACTIVE SUBSTANCES” (BAYER AKTIENGESELLSCHAFT, priority 2022, published 2025)

Experiments:
Type in all cases: in vivo
[1] = system: AMARE: Amaranthus retroflexus; test: Pre-emergence herbicide efficacy at 1280 g/ha, AMARE; details: visual scoring after about 3 weeks vs untreated controls
Text: (§1) Seeds of mono- and dicotyledonous weed plants were placed in plastic pots in sandy loam soil (doubly sown with one species each of mono- or dicotyledonous weed plants per pot) and covered with soil. The compounds of the invention, formulated in the form of wettable powders (WP) or as emulsion concentrates (EC), were then applied to the surface of the covering soil as aqueous suspension or emulsion with addition of 0.5% additive at a water application rate of 600 litres per hectare (converted). After the treatment, the pots were placed in a greenhouse and kept under good growth conditions for the test plants. After about 3 weeks, the efficacy of the preparations was scored visually in comparison with untreated controls as percentages. For example, 100% activity=the plants have died, 0% activity=like control plants. Tables C1 to C12 below show the effects of selected compounds of the general formula (I) according to Table 1 on various harmful plants and at an application rate corresponding to 1280 g/ha, which were obtained by the trial procedure specified above.

[2] = system: ECHCG: Echinochloa crus-galli; test: Pre-emergence herbicide efficacy at 1280 g/ha, ECHCG; details: visual scoring after about 3 weeks vs untreated controls
Text: as §1

STEME: Stellaria media [3] = test: Pre-emergence herbicide efficacy at 1280 g/ha, STEME; details: visual scoring vs untreated controls
Text: as §1

[4] = system: DIGSA: Digitaria sanguinalis; test: Pre-emergence herbicide efficacy at 1280 g/ha, DIGSA; details: visual scoring after about 3 weeks vs untreated controls
Text: as §1

STEME: Stellaria media [5] = test: Post-emergence herbicidal efficacy at 1280 g/ha, STEME; details: visual rating about 3 weeks after treatment vs untreated controls
Description: (§2) Seeds of mono- and dicotyledonous weed plants were placed in plastic pots in sandy loam soil (doubly sown with in each case one species of mono- or dicotyledonous weed plants per pot), covered with soil and cultivated in a greenhouse under controlled growth conditions. 2 to 3 weeks after sowing, the test plants were treated at the one-leaf stage. The compounds of the invention, formulated in the form of wettable powders (WP) or as emulsion concentrates (EC), were applied to the green parts of the plants as aqueous suspension or emulsion with addition of 0.5% additive at a water application rate equivalent to 600 litres per hectare. After the test plants had been kept in the greenhouse under optimum growth conditions for about 3 weeks, the activity of the preparations was rated visually in comparison to untreated controls. For example, 100% activity=the plants have died, 0% activity=like control plants. Tables A1 to A12 below show the effects of selected compounds of the general formula (I) according to Table 1 on various harmful plants and at an application rate corresponding to 1280 g/ha, which were obtained by the trial procedure specified above.

SETVI: Setaria viridis [6] = test: Pre-emergence herbicide efficacy at 1280 g/ha, SETVI; details: visual scoring vs untreated controls
Text: as §1

VERPE: Veronica persica [7] = test: Post-emergence herbicidal efficacy at 1280 g/ha, VERPE; details: visual rating about 3 weeks after treatment vs untreated controls
Description: as §2

[8] = system: AMARE: Amaranthus retroflexus; test: Post-emergence herbicidal efficacy at 80 g/ha, AMARE; details: visual rating about 3 weeks after treatment vs untreated controls
Description: Seeds of monocotyledonous and dicotyledonous weeds and crop plants were placed in sandy loam in plastic or organic planting pots, covered with soil and cultivated in a greenhouse under controlled growth conditions. 2 to 3 weeks after sowing, the test plants were treated at the one-leaf stage. The compounds of the invention, formulated in the form of wettable powders (WP) or as emulsion concentrates (EC), were then sprayed onto the green parts of the plants as aqueous suspension or emulsion with addition of 0.5% additive at a water application rate of 600 l/ha (converted). After the test plants had been kept in the greenhouse under optimum growth conditions for about 3 weeks, the activity of the preparations was rated visually in comparison to untreated controls. For example, 100% activity=the plants have died, 0% activity=like control plants. Tables B1 to B10 below show the effects of selected compounds of the general formula (I) according to Table 1 on various harmful plants and an application rate corresponding to 80 g/ha, which were obtained by the experimental procedure mentioned above.

VERPE: Veronica persica [9] = test: Pre-emergence herbicide efficacy at 1280 g/ha, VERPE; details: visual scoring vs untreated controls
Text: as §1

POAAN: Poa annua [10] = test: Post-emergence herbicidal efficacy at 1280 g/ha, POAAN; details: visual rating about 3 weeks after treatment vs untreated controls
Description: as §2

POAAN: Poa annua [11] = test: Pre-emergence herbicide efficacy at 1280 g/ha, POAAN; details: visual scoring after about 3 weeks vs untreated controls
Text: as §1

SETVI: Setaria viridis [12] = test: Post-emergence herbicidal efficacy at 1280 g/ha, SETVI; details: visual rating about 3 weeks after treatment vs untreated controls
Description: as §2

[13] = system: AMARE: Amaranthus retroflexus; test: Post-emergence herbicidal efficacy at 1280 g/ha, AMARE; details: rated visually after about 3 weeks vs untreated controls, 100% = plants have died, 0% = like control plants
Description: as §2

KCHSC: Kochia scoparia [14] = test: Pre-emergence herbicide efficacy at 1280 g/ha, KCHSC; details: visual scoring after about 3 weeks vs untreated controls
Text: as §1

[15] = system: ABUTH: Abutilon theophrasti; test: Pre-emergence herbicide efficacy at 1280 g/ha, ABUTH; details: visual scoring after about 3 weeks vs untreated controls
Text: as §1

KCHSC: Kochia scoparia [16] = test: Post-emergence herbicidal efficacy at 1280 g/ha, KCHSC; details: visual rating about 3 weeks after treatment vs untreated controls
Description: as §2

[17] = system: ABUTH: Abutilon theophrasti; test: Post-emergence herbicidal efficacy at 1280 g/ha, ABUTH; details: rated visually after about 3 weeks vs untreated controls, 100% = plants have died, 0% = like control plants
Description: as §2

SMILES | Pre-emergence efficacy against AMARE [1] | Pre-emergence efficacy against ECHCG [2] | Pre-emergence efficacy against STEME in % (STEME: Stellaria media [3]) | Pre-emergence efficacy against DIGSA [4] | Post-emergence efficacy against STEME (STEME: Stellaria media [5]) | Pre-emergence efficacy against SETVI in % (SETVI: Setaria viridis [6]) | Post-emergence efficacy against VERPE (VERPE: Veronica persica [7]) | Post-emergence efficacy against AMARE [8] | Pre-emergence efficacy against VERPE in % (VERPE: Veronica persica [9]) | Post-emergence efficacy against POAAN (POAAN: Poa annua [10]) | Pre-emergence efficacy against POAAN (POAAN: Poa annua [11]) | Post-emergence efficacy against SETVI (SETVI: Setaria viridis [12]) | Post-emergence efficacy at 1280 g/ha against AMARE in % [13] | Pre-emergence efficacy against KCHSC (KCHSC: Kochia scoparia [14]) | Pre-emergence efficacy against ABUTH [15] | Post-emergence efficacy against KCHSC (KCHSC: Kochia scoparia [16]) | Post-emergence efficacy at 1280 g/ha against ABUTH in % [17]
FC(F)(F)CCCOc1ccccc1Cc1ncc(Cl)cn1 [Example 1-8] | 100% | 90% | 90% | 100% | 90% | 90% | 100% | – | – | – | – | – | – | – | – | – | –
O=S(=O)(CCCC(F)(F)F)Oc1c(F)cccc1Cc1ncc(F)cn1 [Example 1-15] | – | – | – | – | – | – | – | 90% | – | – | – | – | – | – | – | – | –
O=S(=O)(CCCC(F)(F)F)Oc1c(Cl)cccc1Cc1ncc(Cl)cn1 [Example 1-18] | – | – | – | – | – | – | – | 90% | – | – | – | – | – | – | – | – | –
O=S(=O)(CCC(F)(F)F)Oc1c(Cl)cccc1Cc1ncc(Cl)cn1 [Example 1-20] | – | – | – | – | – | – | – | 90% | – | – | – | – | – | – | – | – | –
COc1cccc(Cc2ncc(Cl)cn2)c1Oc1ccc(F)cc1 [Example 1-33] | 100% | – | 90% | – | 90% | 100% | 90% | – | 100% | 90% | 100% | – | – | – | – | – | –
Fc1cccc(OCCCC(F)(F)F)c1Cc1ncc(Cl)cn1 [Example 1-60] | – | – | – | – | – | – | 100% | – | 90% | – | 90% | – | – | – | – | – | –
Fc1ccc(Oc2ccccc2Cc2ccc(Cl)cn2)cc1 [Example 1-74] | 100% | – | – | 100% | – | 100% | – | – | – | 90% | 100% | 90% | 90% | 90% | – | – | –
Fc1cc(Cl)cnc1Oc1ccccc1Cc1ncccn1 [Example 1-77] | 100% | – | 90% | 90% | 90% | – | 90% | – | – | 90% | 90% | – | 90% | – | 90% | – | –
Fc1ccc(Oc2ccccc2Cc2ncccn2)cc1 [Example 1-98] | 100% | 90% | 90% | 100% | 90% | 90% | 100% | – | 90% | 90% | 90% | – | 100% | – | 100% | 90% | –
Fc1ccc(Cc2ccccc2Oc2ncc(Cl)cc2F)nc1 [Example 1-103] | 100% | 90% | 100% | 90% | 100% | 100% | 100% | – | 90% | 100% | 90% | 90% | 100% | – | 100% | 90% | 100%
Fc1ccc(Sc2ccccc2Cc2ccc(Cl)cn2)cc1 [Example 1-105] | 100% | 90% | 90% | – | 90% | – | 90% | – | 100% | 90% | 100% | – | 90% | – | – | 90% | 90%
Fc1ccc(-c2ccccc2Cc2ncc(Cl)cc2F)cc1F [Example 1-127] | 100% | – | 90% | 90% | 100% | 100% | 100% | – | 90% | 100% | 90% | 90% | 100% | 90% | – | 100% | 100%
[O-][S+](c1ccc(F)cc1)c1ccccc1Cc1ncc(Cl)cn1 (stereo not drawn) [Example 1-142] | – | – | – | – | – | – | – | 80% | – | – | – | – | – | – | – | – | –
O=S(=O)(CCC(F)(F)F)c1ccccc1Cc1ncc(F)cn1 [Example 1-150] | – | – | – | – | – | – | – | 80% | – | – | – | – | – | – | – | – | –
